# Experimental data published in patent publication US20220251163A1 (Sinopep-Allsino Biopharmaceutical Co., Ltd., priority 2019, published 2022).
# pEC50: −log10 of the molar value.
# Tests used:
# mGLP-1R = target: T1, mGLP-1R (Mus musculus, UniProt O35659); assay: GLP-1R agonist activity, cAMP in transfected HEK293 cells; type: cell-based
# T1 construct: expressed in transfected cells; host or cells: HEK293
# T1 sequence (O35659 22-463): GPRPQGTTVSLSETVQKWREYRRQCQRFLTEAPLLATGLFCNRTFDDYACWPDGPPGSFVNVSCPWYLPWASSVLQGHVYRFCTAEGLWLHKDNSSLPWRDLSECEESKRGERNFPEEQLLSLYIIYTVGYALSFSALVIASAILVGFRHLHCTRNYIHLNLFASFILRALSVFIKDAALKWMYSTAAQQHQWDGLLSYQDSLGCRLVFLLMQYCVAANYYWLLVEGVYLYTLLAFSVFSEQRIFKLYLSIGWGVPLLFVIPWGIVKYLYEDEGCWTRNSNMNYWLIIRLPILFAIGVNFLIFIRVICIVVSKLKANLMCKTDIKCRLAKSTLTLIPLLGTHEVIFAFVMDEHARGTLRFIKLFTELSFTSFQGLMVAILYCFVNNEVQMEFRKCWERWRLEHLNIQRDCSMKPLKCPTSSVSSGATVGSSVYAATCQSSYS
# Description: HEK293 cells were co-transfected with cDNA encoding GLP-1R or GIPR. In a test for determining the compound, the cells were inoculated in a 96-well plate 2 h in advance, the polypeptide compound was dissolved with DMSO, and diluted to different multiples with a culture medium containing 0.1% bovine serum albumin and added to the co-transfected cells. After the cells were incubated for 20 min, fluorescence values were determined through microplate reader of an ELISA kit of the Cisbo Company, a standard curve was established to convert the fluorescence values into corresponding cAMP values, and the EC50 value of the compound was calculated through nonlinear regression of Graphpad Prism 5.0 software.
# mGIPR = target: T2, mGIPR (Mus musculus, UniProt Q0P543); assay: GIPR agonist activity, cAMP in transfected HEK293 cells; type: cell-based
# T2 construct: expressed in transfected cells; host or cells: HEK293
# T2 sequence (Q0P543 19-460): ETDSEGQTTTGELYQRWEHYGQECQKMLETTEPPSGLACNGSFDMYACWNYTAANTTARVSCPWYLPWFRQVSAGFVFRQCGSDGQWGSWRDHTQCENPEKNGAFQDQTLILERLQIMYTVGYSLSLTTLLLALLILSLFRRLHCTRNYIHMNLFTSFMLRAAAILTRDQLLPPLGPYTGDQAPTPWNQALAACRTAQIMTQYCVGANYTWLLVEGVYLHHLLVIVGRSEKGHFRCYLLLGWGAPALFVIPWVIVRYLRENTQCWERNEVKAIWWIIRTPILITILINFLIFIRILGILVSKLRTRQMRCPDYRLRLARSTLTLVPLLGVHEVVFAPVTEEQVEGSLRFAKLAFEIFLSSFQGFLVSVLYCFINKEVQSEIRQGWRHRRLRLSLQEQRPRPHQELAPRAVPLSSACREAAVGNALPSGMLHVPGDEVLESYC
# Description: HEK293 cells were co-transfected with cDNA encoding GLP-1R or GIPR. In a test for determining the compound, the cells were inoculated in a 96-well plate 2 h in advance, the polypeptide compound was dissolved with DMSO, and diluted to different multiples with a culture medium containing 0.1% bovine serum albumin and added to the co-transfected cells.
# ob/ob mice = assay: Blood glucose reducing experiment, single subcutaneous injection in ob/ob mice; type: in vivo; details: 100 μg/kg single s.c.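 Further: random blood glucose read at each time point, decrease rate given as percentage fall versus the model control group.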
# Description: The mice in each group received random blood glucose value measurement before (0 h) administration and 2, 4, 6, 10 and 24 h after administration, and then the time for measuring the random blood glucose was adjusted and prolonged to 34, 48, 58 or 72 h after administration according to the blood glucose condition of the mice in each group. Meanwhile, the random weight of the mice in each group before (0 h) administration and 24 h after administration was weighed, and then the random weight of the mice corresponding to the random blood glucose measurement condition 48 or 72 h after administration was weighed. The blood glucose decrease rate, the blood glucose curve area (AUC0-24 h Glu) within 24 h after administration and the decrease rate were calculated according to the following formula.
# Blood glucose decrease rate=(blood glucose in the model control group−blood glucose in the administration group)/blood glucose in the model control group×100%
# BG0, BG2, BG4, BG6, BG10 and BG24 represented the blood glucose values before administration (0 h) and 2, 4, 6, 10 and 24 h after administration respectively.
# AUC0-24 h Glu(mmol/Lh·r) decrease rate=(model control group AUC0-24 h Glu−administration group AUC0-24 h Glu/model control group AUC0-24 h Glu×100%
# Experiments were carried out twice, at an interval of 8-10 days.
# [1] = Effect on random weight of ob/ob mice after single subcutaneous injection; type: in vivo; details: 100 μg/kg single s.c., X ± s, n = 7
# Description: The mice in each group received random blood glucose value measurement before (0 h) administration and 2, 4, 6, 10 and 24 h after administration, and then the time for measuring the random blood glucose was adjusted and prolonged to 34, 48, 58 or 72 h after administration according to the blood glucose condition of the mice in each group. Meanwhile, the random weight of the mice in each group before (0 h) administration and 24 h after administration was weighed, and then the random weight of the mice corresponding to the random blood glucose measurement condition 48 or 72 h after administration was weighed.
compound,measurement,setting,value
CC[C@H](C)[C@H](NC(=O)[C@H](CCCCN)NC(=O)[C@H](CC(=O)O)NC(=O)[C@H](CC(C)C)NC(=O)[C@H](C)NC(=O)[C@@H](NC(=O)[C@H](CO)NC(=O)[C@H](Cc1ccc(O)cc1)NC(=O)[C@H](CC(=O)O)NC(=O)[C@H](CO)NC(=O)[C@@H](NC(=O)[C@H](Cc1ccccc1)NC(=O)[C@@H](NC(=O)CNC(=O)[C@H](CCC(=O)O)NC(=O)[C@H](C)NC(=O)[C@@H](N)Cc1ccc(O)cc1)[C@@H](C)O)[C@@H](C)O)[C@@H](C)CC)C(=O)N[C@@H](C)C(=O)N[C@@H](CCC(N)=O)C(=O)N[C@@H](CCCCNC(=O)COCCOCCNC(=O)COCCOCCNC(=O)CC[C@H](NC(=O)CCCCCCCCCCCCCCCCC(=O)O)C(=O)O)C(=O)N[C@@H](C)C(=O)N[C@@H](Cc1ccccc1)C(=O)N[C@H](C(=O)N[C@@H](CCC(N)=O)C(=O)N[C@@H](Cc1c[nH]c2ccccc12)C(=O)N[C@@H](CC(C)C)C(=O)N[C@H](C(=O)N[C@@H](C)C(=O)NCC(=O)NCC(=O)N1CCC[C@H]1C(=O)N[C@@H](CO)C(=O)N[C@@H](CO)C(=O)NCC(=O)N[C@@H](C)C(=O)N1CCC[C@H]1C(=O)N1CCC[C@H]1C(=O)N1CCC[C@H]1C(=O)N[C@@H](CO)C(N)=O)[C@@H](C)CC)C(C)C [ID NO: 4],pEC50,mGLP-1R,11.83
same,pEC50,mGIPR,11.28
same,"Blood glucose at different time after administration, 0 h","ob/ob mice; 0 h (before administration), X ± s, n = 7",20.43 ± 0.68 mmol/L
same,"Decrease rate of blood glucose at different time after administration, 2 h",ob/ob mice; 2 h,50.0%
same,"Blood glucose at different time after administration, 2 h","ob/ob mice; 2 h, X ± s, n = 7",10.21 ± 1.06 mmol/L
same,"Decrease rate of blood glucose at different time after administration, 4 h",ob/ob mice; 4 h,51.6%
same,"Blood glucose at different time after administration, 4 h","ob/ob mice; 4 h, X ± s, n = 7",9.89 ± 0.83 mmol/L
same,"Decrease rate of blood glucose at different time after administration, 6 h",ob/ob mice; 6 h,52.9%
same,"Blood glucose at different time after administration, 6 h","ob/ob mice; 6 h, X ± s, n = 7",9.63 ± 0.95 mmol/L
same,"Decrease rate of blood glucose at different time after administration, 10 h",ob/ob mice; 10 h,51.7%
same,"Blood glucose at different time after administration, 10 h","ob/ob mice; 10 h, X ± s, n = 7",9.86 ± 0.96 mmol/L
same,"Decrease rate of blood glucose at different time after administration, 24 h",ob/ob mice; 24 h,46.1%
same,"Blood glucose at different time after administration, 24 h","ob/ob mice; 24 h, X ± s, n = 7",11.01 ± 0.83 mmol/L
same,"Decrease rate of blood glucose at different time after administration, 34 h",ob/ob mice; 34 h,28.7%
same,"Blood glucose at different time after administration, 34 h","ob/ob mice; 34 h, X ± s, n = 7",14.56 ± 1.42 mmol/L
same,"Decrease rate of blood glucose at different time after administration, 48 h",ob/ob mice; 48 h,15.2%
same,AUC0-24 h Glu,"ob/ob mice; blood glucose curve area within 24 h, X ± s, n = 7",255.33 ± 20.13 mmol·h/L
same,AUC0-24 h Glu Decrease rate,ob/ob mice; versus model control group,50.0%
same,"Changes of random body weight at different time after administration, 0 h",[1]; 0 h,0.0 ± 0.0 g
same,"Random body weight at different time after administration, 0 h",[1]; 0 h,43.6 ± 1.0 g
same,"Changes of random body weight at different time after administration, 24 h",[1]; 24 h,-1.4 ± 0.2 g
same,"Random body weight at different time after administration, 24 h",[1]; 24 h,42.2 ± 1.0 g
same,"Changes of random body weight at different time after administration, 48 h",[1]; 48 h,-0.6 ± 0.1 g
same,"Random body weight at different time after administration, 48 h",[1]; 48 h,42.9 ± 1.1 g
